Measurements: patent publication US10711011B2, “Substituted oxazolidines as anti-bacterial agents” (BUGWORKS RESEARCH, INC., priority 2016, dated 2020)
≈ marks a conversion by molar mass, not a printed value. Where two headings read alike, the source gives them in different places.

Experiments:
[1] = Mouse oral pharmacokinetics; format: in vivo, BALB/c mice; design: AUC/Dose: unit not given beside the values; conditions: for Cmax/dose: in (µg/mL)/(mg/kg)
Method: To assess the Oral and Intravenous pharmacokinetic profile of Example 13, pharmacokinetics (PK) of Example 13 was characterized in BALB/c mice following single intravenous (i.v.) dose of 2 mg/kg and single escalating oral doses of 2, 10, 50 and 100 mg/kg, respectively. This study was performed following all ethical practices as laid down in the guidelines for animal care (Registration number No. 1852/PO/Rc/S/16/CPCSEA). The study was approved by the Institutional Animals Ethics Committee (IAEC) of the test facility. For IVPK in BALB/c mice, the formulation used was DMSO: PEG400: Ethanol: Water (10:20:10:60 v/v) and Example 13 administered as solution. For POPK, the formulation used was 0.1% Tween80 in 0.25% CMC and Example 13 administered as suspension through an oral gavage. The plasma (mice) samples were analyzed by LC-MS/MS. PK parameters were estimated by non-compartmental analysis in Phoenix WinNonlin 6.4 The results of the per-oral and intravenous PK study of Example 13 are presented in Table 4 and 5

E. faecalis ATCC 29212 = assay: Minimum Inhibitory Concentration (MIC) in LB media; format: cell-based, Enterococcus faecalis; conditions: Enterococcus faecalis, ATCC29212
S. aureus ATCC 29213 = assay: Minimum Inhibitory Concentration (MIC) in LB media; format: cell-based, Staphylococcus aureus; conditions: Staphylococcus aureus, ATCC29213, LB Media
P. aurigenosa ATCC 27853 = assay: Minimum Inhibitory Concentration (MIC) in LB media; format: cell-based, Pseudomonas aurigenosa; conditions: Pseudomonas, ATCC27853, LB Media
E. coli DNA gyrase = E. coli DNA gyrase (Escherichia coli, UniProt P0AES4+P0AES6); assay: biochemical; conditions: supercoiling assay
A. baumannii ATCC 19606 = assay: Minimum Inhibitory Concentration (MIC) in LB media; format: cell-based, Acinetobacter baumannii; conditions: Acinetobacter baumannii, ATCC19606, LB Media
E. coli ATCC 25922 = assay: Minimum Inhibitory Concentration (MIC) in LB media; format: cell-based, Escherichia coli; conditions: Escherichia coli, ATCC25922, LB Media
[2] = BALB/c, mouse, plasma, mice, single oral dose 2 mg/kg
[3] = BALB/c, mouse, plasma, mice, single oral dose 10 mg/kg
[4] = BALB/c, mouse, plasma, mice, single oral dose 50 mg/kg
[5] = BALB/c, mouse, plasma, mice, single oral dose 100 mg/kg
[6] = mice, single oral dose 10 mg/kg
[7] = mice, single oral dose 50 mg/kg
[8] = mice, single oral dose 100 mg/kg

E. coli DNA gyrase, sequence (P0AES4 whole entry, one chain of several): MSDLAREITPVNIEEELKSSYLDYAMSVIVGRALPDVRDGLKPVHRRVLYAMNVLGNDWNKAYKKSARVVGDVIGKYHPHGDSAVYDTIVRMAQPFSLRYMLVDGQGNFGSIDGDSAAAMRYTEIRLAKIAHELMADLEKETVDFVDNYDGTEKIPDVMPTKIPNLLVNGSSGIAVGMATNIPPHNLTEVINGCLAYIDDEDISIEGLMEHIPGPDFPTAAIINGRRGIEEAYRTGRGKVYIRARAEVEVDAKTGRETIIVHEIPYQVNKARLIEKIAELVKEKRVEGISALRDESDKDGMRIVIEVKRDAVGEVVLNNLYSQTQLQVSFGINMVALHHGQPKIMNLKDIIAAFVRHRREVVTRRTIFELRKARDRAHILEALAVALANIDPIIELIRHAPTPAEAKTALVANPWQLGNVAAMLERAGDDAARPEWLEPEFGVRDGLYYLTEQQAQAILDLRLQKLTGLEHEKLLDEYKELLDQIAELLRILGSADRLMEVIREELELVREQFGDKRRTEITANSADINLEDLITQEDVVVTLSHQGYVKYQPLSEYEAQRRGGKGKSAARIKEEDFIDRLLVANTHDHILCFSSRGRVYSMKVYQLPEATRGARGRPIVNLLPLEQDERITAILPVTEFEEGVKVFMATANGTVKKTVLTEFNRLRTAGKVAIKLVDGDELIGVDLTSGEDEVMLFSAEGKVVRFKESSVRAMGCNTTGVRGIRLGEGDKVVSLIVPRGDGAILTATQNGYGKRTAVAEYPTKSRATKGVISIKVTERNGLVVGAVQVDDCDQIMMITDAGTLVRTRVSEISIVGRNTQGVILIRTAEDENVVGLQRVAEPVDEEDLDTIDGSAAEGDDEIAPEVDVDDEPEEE

Question: What does the source list for `CN1C(=O)Cc2ccc(F)c(CCNCCC3CN(c4ccc5c(n4)NC(=O)CO5)C(=O)O3)c21` (single isomer, unassigned) [Example 13, 6-(5-(2-((2-(6-fluoro-1-methyl-2-oxoindolin-7-yl)ethyl)amino)ethyl)-2-oxooxazolidin-3-yl)-2H-pyrido[3,2-b][1,4]oxazin-3(4H)-one]?
Answer: Cmax ([1]; BALB/c, mouse, plasma, po, 2 mg/kg, mice, single oral dose 2 mg/kg): 6 ng/mL; AUC(0-inf) ([1]; BALB/c, mouse, plasma, po, 2 mg/kg, mice, single oral dose 2 mg/kg, read-out: AUC0-∞): 70 ng·h/mL; half-life ([1]; BALB/c, mouse, plasma, po, 2 mg/kg, mice, single oral dose 2 mg/kg, read-out: t1/2 (converted)): 338 min; Cmax ([1]; BALB/c, mouse, plasma, po, 10 mg/kg, mice, single oral dose 10 mg/kg): 108 ng/mL; AUC(0-inf) ([1]; BALB/c, mouse, plasma, po, 10 mg/kg, mice, single oral dose 10 mg/kg, read-out: AUC0-∞): 335 ng·h/mL; half-life ([1]; BALB/c, mouse, plasma, po, 10 mg/kg, mice, single oral dose 10 mg/kg, read-out: t1/2 (converted)): 128 min; Cmax ([1]; BALB/c, mouse, plasma, po, 50 mg/kg, mice, single oral dose 50 mg/kg): 740 ng/mL; AUC(0-inf) ([1]; BALB/c, mouse, plasma, po, 50 mg/kg, mice, single oral dose 50 mg/kg, read-out: AUC0-∞): 1970 ng·h/mL; half-life ([1]; BALB/c, mouse, plasma, po, 50 mg/kg, mice, single oral dose 50 mg/kg, read-out: t1/2 (converted)): 96 min; AUC(0-inf) ([1]; BALB/c, mouse, plasma, po, 100 mg/kg, BALB/c mice, single oral doses of 2, 10, 50 and 100 mg/kg, read-out: AUC0-∞, range over oral doses): 70 to 4820 ng·h/mL; Clast ([1]; BALB/c, mouse, plasma, po, 100 mg/kg, BALB/c mice, single oral doses of 2, 10, 50 and 100 mg/kg, read-out: Cmax, range over oral doses): 4 to 72 ng/mL; half-life ([1]; BALB/c, mouse, plasma, po, 100 mg/kg, BALB/c mice, single oral doses of 2, 10, 50 and 100 mg/kg, read-out: t1/2, range over oral doses): 84 to 336 min; Cmax ([1]; BALB/c, mouse, plasma, po, 100 mg/kg, mice, single oral dose 100 mg/kg): 2380 ng/mL; AUC(0-inf) ([1]; BALB/c, mouse, plasma, po, 100 mg/kg, mice, single oral dose 100 mg/kg, read-out: AUC0-∞): 4820 ng·h/mL; half-life ([1]; BALB/c, mouse, plasma, po, 100 mg/kg, mice, single oral dose 100 mg/kg, read-out: t1/2 (converted)): 85 min; AUC(0-t) [1, 2]: 70 ng·h/mL; Tmax [1, 2]: 60 min; concentration at 24 h ([1]; BALB/c, mouse, plasma, mice, single oral dose 2 mg/kg, read-out: Clast): 4 ng/mL; AUC(0-t) [1, 3]: 311 ng·h/mL; Tmax [1, 3]: 30 min; concentration at 8 h ([1]; BALB/c, mouse, plasma, mice, single oral dose 10 mg/kg, read-out: Clast): 9 ng/mL; AUC(0-t) [1, 4]: 1900 ng·h/mL; Tmax [1, 4]: 30 min; concentration at 8 h ([1]; BALB/c, mouse, plasma, mice, single oral dose 50 mg/kg, read-out: Clast): 28 ng/mL; AUC(0-t) [1, 5]: 4700 ng·h/mL; Tmax [1, 5]: 60 min; concentration at 8 h ([1]; BALB/c, mouse, plasma, mice, single oral dose 100 mg/kg, read-out: Clast): 72 ng/mL; AUC/Dose ([1]; mice, single oral dose 2 mg/kg): 0.036; F ([1]; mice, single oral dose 2 mg/kg): 20.6%; Ke ([1]; mice, single oral dose 2 mg/kg): 0.123 h⁻¹; Tlast ([1]; mice, single oral dose 2 mg/kg): 24 h; Cmax/dose ([1]; mice, single oral dose 2 mg/kg): 0.003; AUC/Dose [1, 6]: 0.034; F [1, 6]: 19.0%; Ke [1, 6]: 0.325 h⁻¹; Tlast [1, 6]: 8 h; Cmax/dose [1, 6]: 0.011; AUC/Dose [1, 7]: 0.039; F [1, 7]: 22.3%; Ke [1, 7]: 0.433 h⁻¹; Tlast [1, 7]: 8 h; Cmax/dose [1, 7]: 0.015; AUC/Dose [1, 8]: 0.048; F [1, 8]: 27.4%; Ke [1, 8]: 0.489 h⁻¹; Tlast [1, 8]: 8 h; Cmax/dose [1, 8]: 0.024; bioavailability ([1]; mouse, plasma, BALB/c mice, single oral doses of 2, 10, 50 and 100 mg/kg, read-out: oral bioavailability, range over oral doses): 19 to 27%; MIC (E. faecalis ATCC 29212): 0.25 µg/mL (≈ 0.533 µM); MIC (S. aureus ATCC 29213): 0.03 µg/mL (≈ 0.0639 µM); MIC (P. aurigenosa ATCC 27853): 0.5 µg/mL (≈ 1.07 µM); IC50 (E. coli DNA gyrase): 50 nM; MIC (A. baumannii ATCC 19606): 0.06 µg/mL (≈ 0.128 µM); MIC (E. coli ATCC 25922): 0.06 µg/mL (≈ 0.128 µM)
